Results published in US20140193827A1 (TEVA PHARMACEUTICAL INDUSTRIES, LTD., priority 2013, published 2014).

System: GA-primed murine splenocytes
Test: ANOVA-based pattern identification method
Assay type: cell-based, mouse
Description: We sought to identify probes matching specific patterns of expression across experimental conditions using a technique that referred to as the ANOVA-based Pattern Identification Method.
To carry out the analysis in a general manner, we computed the 6 p-values required to do pairwise comparisons of all 4 conditions for all probes using the ANOVA1 function in MATLAB. We then identified sets of probes matching the desired pattern. In the example above, probes were identified as being only affected by PG if their 6 pairwise comparison pvalues matched the following pattern (pGA-PG<0.05, pPG-reference standard<0.05, pPG-Medium<0.05, pGAMedium>0.05, pGA-reference standard>0.05, preference standard-Medium>0.05).

[1] = DOWN IN generic ONLY, group mean

## glatiramer acetate [GA]
[1]
  PARP11 expression: 5.609
  PAX6 expression: 5.641
  PCSK2 expression: 5.653
  PDK2 expression: 5.937
  PHIP expression: 8.192
  PMS1 expression: 5.806
  PRICKLE2 expression: 5.859
  PTP4A2 expression: 8.952
  PTPN22 expression: 5.804
  R3HDM1 expression: 6.229
  RAB4A expression: 6.851
  RAB6B expression: 5.767
  RAB27A expression: 9.622
  RBM18 expression: 7.292
  RDH1 expression: 5.682
  RGS19 expression: 6.584
  RHBDF2 expression: 6.336
  RNF17 expression: 5.538
  RNF150 expression: 5.93
  RPL32 expression: 13.81
  RTN3 expression: 5.897
  RgenericRIP1 expression: 5.935
  SCNN1B expression: 5.616
  SEC1 expression: 5.75
  SEMA3E expression: 5.601
  SH3BP2 expression: 10.95
  SOX2 expression: 5.674
  SPCS2 expression: 5.97
  SPDYB expression: 5.641
  SPN expression: 5.889
  SPRR2K expression: 5.662
  STAT4 expression: 5.836
  SVNGR4 expression: 5.647
  SYT10 expression: 5.717
  TATDN3 expression: 5.694
  TCFAP2C expression: 5.821
  TDH expression: 5.601
  TMEFF2 expression: 5.65
  TMEM146 expression: 6.132
  TMPO expression: 8.533
  TRPM1 expression: 5.694
  TRPV3 expression: 5.597
  TSC1 expression: 5.984
  TSSC1 expression: 7.729
  TYKI expression: 7.673
  UGDH expression: 5.86
  UGT2A1 expression: 5.61
  UTX expression: 9.817
  V1RD9 expression: 5.697
  ZAP70 expression: 7.106
  ZBTB44 expression: 5.642
  ZCCHC11 expression: 5.935
  ZFP120 expression: 5.536
  ZFP212 expression: 6.401
  ZSCAN2 expression: 5.813
  control_ILMN_1378612 expression: 5.7
  control_ILMN_1378679 expression: 5.604
  control_ILMN_1378774 expression: 5.707
  control_ILMN_1378775 expression: 5.662
  control_ILMN_1379152 expression: 5.629
  control_ILMN_1379205 expression: 5.72
  genericC expression: 5.676
DOWN IN generic ONLY, group mean, first USP47 line
  USP47 expression: 6.068
DOWN IN generic ONLY, group mean, second USP47 line
  USP47 expression: 6.377
UP IN GA AND REF ONLY
  1700025G04RIK expression level: 7.268
  1700027N10RIK expression level: 6.448
  1810013L24RIK expression level: 7.658
  2310016C16RIK expression level: 5.823
  2500002A22RIK expression level: 6.674
  2610017G09RIK expression level: 5.839
  2810008M24RIK expression level: 9.714
  2810410P22RIK expression level: 7.979
  3202002H23RIK expression level: 6.527
  4930404F20RIK expression level: 6.759
  4930422G04RIK expression level: 5.79
  4930539E08RIK expression level: 6.255
  4932413O14RIK expression level: 5.732
  5830457O10RIK expression level: 6.825
  8030402P03RIK expression level: 7.776
  9430077D24RIK expression level: 7.091
  A630098G22RIK expression level: 7.124
  A830083H19RIK expression level: 7.635
  A930014D08RIK expression level: 5.703
  ACTN4 expression level: 6.609
  ALS2CL expression level: 7.393
  AP1B1 expression level: 10.95
  ARHGAP25 expression level: 10.16
  ARL1 expression level: 9.913
  ARL5A expression level: 8.028
  BAT2D expression level: 5.932
  BAZ1B expression level: 5.676
  BCL11B expression level: 7.609
  C130079K02RIK expression level: 7.532
  C920025C15RIK expression level: 6.929
  CBFB expression level: 6.648
  CCR4 expression level: 5.821
  CD226 expression level: 6.995
  CHIC2 expression level: 8.484
  CLCN3 expression level: 8.431
  COX7A1 expression level: 7.161
  CSF1 expression level: 5.383
  CXCR6 expression level: 6.834
  CYB5 expression level: 11.21
  D4ERTD22E expression level: 11.37
  D6WSU163E expression level: 6.582
  D230021E06RIK expression level: 7.605
  D630011N09RIK expression level: 5.625
  D630022O22RIK expression level: 6.33
  DCK expression level: 6.716
  DCUN1D5 expression level: 9.535
  DHX32 expression level: 8.979
  DMBT1 expression level: 5.787
  DTYMK expression level: 10.17
  EG386506 expression level: 5.743
  EG666756 expression level: 10.78
  EIF3B expression level: 6.383
  EIF4E3 expression level: 8.882
  ELAC2 expression level: 6.351
  ELF1 expression level: 10.44
  EP5TI1 expression level: 8.281
  ETS1 expression level: 7.811
  F830048D03RIK expression level: 6.799
  FANCA expression level: 5.606
  FBXO33 expression level: 8.898
  FEM1C expression level: 8.076
  FERD3L expression level: 5.887
